In PMC6736568, “Discovery of Novel Anti-cryptosporidial Activities From Natural Products by in vitro High-Throughput Phenotypic Screening” (Frontiers in Microbiology, 2019):
Like-named read-outs stand apart in the source and are kept apart here.

How the values were obtained:
Cryptosporidium parvum [1] = experiment: Effect on different parasite developmental stages in vitro (qRT-PCR); format: cell-based; conditions: cedrelone 1.0 μM, Deox B 7,4 2.0 μM, baicalein 3.3 μM, PRM 150 μM
Protocol: We selected three top hits derived from plants for evaluating their activity against various developmental stages of C. parvum. For evaluating the effect on the parasite invasion (i.e., 0–3 hpi treatment groups), host cell monolayers will be incubated with C. parvum oocysts (10^5 oocysts/well) in 96-well plates together with individual compounds at around EC80 concentrations. For evaluating the effect on various stages of intracellular parasites (i.e., 3–10 hpi, […], 22–44 hpi, and 3–44 hpi treatment groups), host cell monolayers were incubated with C. parvum oocysts (50,000 oocysts/well) for 3 h, followed by the removal of uninvaded parasites by a medium exchange. These time points roughly corresponded to the invasion into host cells (0–3 hpi), the development of first and some second generation of merogony (3–22 hpi) or second generation of merogony and gametogenesis (22–44 hpi). Individual compounds at EC80 final concentrations were added into wells at specified post-infection time points, and plates were incubated for specified durations of post-infection times. Cell lysates were prepared at the end of each treatment for qRT-PCR.
(§1) In all experiments, negative controls were treated with diluent (0.5% DMSO) for the same durations of corresponding drug treatment groups. All experiments include least three biological replicates for each compound in the in vitro drug treatment assay and two technical replicates for each biological replicate in the qRT-PCR assay.

Cryptosporidium parvum [2] = experiment: Drug withdrawal assay (qRT-PCR at 44 hpi); format: cell-based; conditions: assayed at 44 hpi, cedrelone 1.0 μM, Deox B 7,4 2.0 μM, baicalein 3.3 μM, PRM 150 μM
Protocol: For drug withdrawal assay, HCT-8 cells were cultured and inoculated with C. parvum oocysts (50,000 oocysts/well) for 3 h. After a medium exchange, individual compounds at EC80 final concentrations were added into wells. Compounds were removed at 22 hpi time point by a medium exchange, and infected cells were allowed to grow up to 44 hpi (3–22 hpi treatment groups). A full course of treatment for each compound was included as control (3–44 hpi treatment groups). Cell lysates were prepared at 44 hpi time point for qRT-PCR.
as §1

HCT-8 cells = experiment: In vitro cytotoxicity MTS assay on host cells; format: cell-based, human; conditions: 41 h
Protocol: The plates were measured for absorbance at 490 nm in 15 min intervals in a SmartReader 96 microplate reader (Accuris, Edison, NJ, United States). Cytotoxicity of a compound was quantified by calculating the half maximal toxic concentration on host cells (TC50). An in vitro safety interval (SI) was calculated by determining the ratio between TC50 and EC50 values (i.e., SI = TC50/EC50).

in vitro = conditions: for cytotoxicity at 41 h, 10 µM: human
Cryptosporidium parvum [3] = experiment: qRT-PCR assay of the growth of C. parvum in vitro in HCT-8 host cells (primary and secondary screening, EC50); format: cell-based; conditions: Cryptosporidium parvum; for inhibition at 10 µM / inhibition at 3.3 µM: HCT-8; for inhibition at 10 µM: primary screening at 10 uM, read-out: Inhibition (%); for inhibition at 3.3 µM: secondary screening at 3.3 uM, read-out: % Inhibition (3.3 uM); for EC50: growth of C. parvum in vitro, HCT-8 host cells, 44 h infection
[4] = tested on: cryptosporidial infection; parameters: method as in Lemeteil et al., 1993; conditions: ref Lemeteil et al., 1993; cited from earlier work
[5] = mouse, ip; ref MicroSource NatProd Collection note; cited from earlier work

Structure (SMILES)	inhibition at 2 µM (Cryptosporidium parvum [1]; treatment 0-3 hpi (excystation and invasion)) [%]	inhibition at 2 µM (Cryptosporidium parvum [1]; treatment 3-10 hpi) [%]	inhibition at 2 µM (Cryptosporidium parvum [1]; treatment 3-22 hpi, assayed at end of treatment) [%]	inhibition at 2 µM (Cryptosporidium parvum [1]; treatment 3-44 hpi (full course)) [%]	inhibition at 2 µM (Cryptosporidium parvum [1]; treatment 22-44 hpi) [%]	inhibition at 2 µM (Cryptosporidium parvum [2]; full course 3-44 hpi, read-out: 3-44 hpi Inhibition) [%]	inhibition at 2 µM (Cryptosporidium parvum [2]; treated 3-22 hpi, compound removed, read-out: 3-22 hpi Inhibition) [%]	Hs18S ΔCT (HCT-8 host cells (Hs18S); human, 41 h, 10 μM)	TC50 (HCT-8 cells; HCT-8 cells, MTS) [µM]	cytotoxicity at 41 h, 10 µM (in vitro) [%]	inhibition at 10 µM (Cryptosporidium parvum [3]) [%]	inhibition at 3.3 µM (Cryptosporidium parvum [3]) [%]	EC50 (Cryptosporidium parvum [3]) [µM]	efficacy on cryptosporidial infection in rats [4]	TC50 (HCT-8 cells; human) [µM]	LD50 [5] [mg/kg]	Hs18S ΔCT (HCT-8 host cells (Hs18S); primary screening at 10 uM, treated vs control)	cytotoxicity at 10 µM (in vitro) [%]
COc1ccc2c(c1)OC[C@H](Cc1ccc(OC)c(O)c1)C2=O [Deoxysappanone B 7,4′-dimethyl ether]	-5.5 ± 7.2	9.1 ± 10.4	18	67.2	22.9 ± 6.8	73.8	61.9	0.62	64.9	35.1	91.3	52	0.734					
COc1cccc2c1C(=O)c1c(O)c3c(c(O)c1C2=O)C[C@@](O)(C(C)=O)C[C@@H]3O[C@H]1C[C@H](N)[C@H](O)[C@H](C)O1 [Daunorubicin, reference compound]								0.99		49.5	76.8	71	1.49	ineffective	42.6			
COC1=C[C@@H]2[C@@H]3Cc4ccc(OC)c(O)c4[C@]2(CCN3C)CC1=O [SINOMENINE]											-83.5					285	-0.78	-71.8
